From patent US7001905B2, “Substituted diarylamines as MEK inhibitors” (Warner-Lambert Company, priority 2000, dated 2006)

Target: T1, MEK (Homo sapiens, UniProt Q02750)
T1 construct: no tag is given for the 2D mutant
Assay: in vitro MEK assay
Type: biochemical
In short: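 GST-MEK (10 μg) or activated GST-MEK-2E (S218E/S222E, 5 μg) phosphorylates kinase-dead GST-MAPK-KA (K71A, 5 μg) with 10 μM [γ-32P]ATP in 50 mM Tris pH 7.5 for 15 min at 30 °C. Read-out: SDS-PAGE, autoradiography and scintillation counting of excised bands.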

T1 sequence (Q02750 whole entry S218D/S222D, form open): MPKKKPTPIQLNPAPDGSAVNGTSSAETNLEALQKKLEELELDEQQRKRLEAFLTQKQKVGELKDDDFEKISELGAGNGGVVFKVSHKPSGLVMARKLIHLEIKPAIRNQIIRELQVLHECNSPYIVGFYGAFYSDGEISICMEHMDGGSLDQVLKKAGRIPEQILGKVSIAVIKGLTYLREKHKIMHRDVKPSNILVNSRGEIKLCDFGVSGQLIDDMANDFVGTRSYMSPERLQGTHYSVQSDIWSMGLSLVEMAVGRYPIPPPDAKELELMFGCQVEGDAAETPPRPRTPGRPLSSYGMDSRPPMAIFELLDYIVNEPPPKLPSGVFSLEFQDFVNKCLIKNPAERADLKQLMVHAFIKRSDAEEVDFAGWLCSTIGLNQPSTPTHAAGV

Row | Compound | IC50 [µM] | in vitro MEK assay: % inhibition @ 1 μM [%]
1 | Cc1cc(I)ccc1Nc1c(C(=O)O)cc(C(=O)N2CCSC2)c(F)c1F [Example 98, 3,4-Difluoro-2-(4-iodo-2-methyl-phenylamino)-5-(1-thiazolidin-3-yl-methanoyl)-benzoic acid] | 0.087 | 86
2 | Cc1cc(I)ccc1Nc1c(C(=O)O)cc(C(=O)N2CCSCC2)c(F)c1F [Example 99] | 0.15 | 82
3 | Cc1cc(I)ccc1Nc1c(C(=O)O)cc(C(=O)NCCCn2ccnc2)c(F)c1F [Example 90, 4,5-Difluoro-N-(3-imidazol-1-yl-propyl)-6-(4-iodo-2-methyl-phenylamino)-isophthalamic acid] | – | 59
4 | CCn1nccc1NC(=O)c1cc(C(=O)O)c(Nc2ccc(I)cc2C)c(F)c1F [Example 84, N-(2-Ethyl-2H-pyrazol-3-yl)-4,5-difluoro-6-(4-iodo-2-methyl-phenylamino)-isophthalamic acid] | 0.96 | 79
5 | Cc1cc(I)ccc1Nc1c(C(=O)O)cc(C(=O)N2CCCC(CO)C2)c(F)c1F (stereo not drawn) [Example 76, 3,4-Difluoro-5-[1-(3-hydroxymethyl-piperidin-1-yl)-methanoyl]-2-(4-iodo-2-methyl-phenylamino)-benzoic acid] | 0.3 | 88
6 | Cc1cc(I)ccc1Nc1c(C(=O)O)cc(C(=O)NCCc2c[nH]cn2)c(F)c1F [Example 88, 4,5-Difluoro-N-[2-(1H-imidazol-4-yl)-ethyl]-6-(4-iodo-2-methyl-phenylamino)-isophthalamic acid] | 1.4 | 60
7 | Cc1cc(I)ccc1N1COC(=O)c2cc(C(=O)Nc3ccc(N(C)C)cc3)c(F)c(F)c21 [Example 53, 7,8-Difluoro-1-(4-iodo-2-methyl-phenyl)-4-oxo-1,4-dihydro-2H-3,1-benzoxazine-6-carboxylic acid (4-dimethylamino-phenyl)amide] | – | 61
8 | CSc1nc(NC(=O)c2cc3c(c(F)c2F)N(c2ccc(I)cc2C)COC3=O)n[nH]1 [Example 35, 7,8-Difluoro-1-(4-iodo-2-methyl-phenyl)-4-oxo-1,4-dihydro-2H-3,1-benzoxazine-6-carboxylic acid (5-methylsulfanyl-1H-1,2,4-triazol-3-yl)-amide] | – | 76
9 | Cc1cc(I)ccc1N1COC(=O)c2cc(C(=O)Nc3nc4ccccc4s3)c(F)c(F)c21 [Example 29, 7,8-Difluoro-1-(4-iodo-2-methyl-phenyl)-4-oxo-1,4-dihydro-2H-3,1-benzoxazine-6-carboxylic acid benzothiazol-2-ylamide] | – | 21
10 | CCSc1nnc(NC(=O)c2cc3c(c(F)c2F)N(c2ccc(I)cc2C)COC3=O)s1 [Example 25, 7,8-Difluoro-1-(4-iodo-2-methyl-phenyl)-4-oxo-1,4-dihydro-2H-3,1-benzoxazine-6-carboxylic acid (5-ethylsulfanyl-1,3,4-thiadiazol-2-yl)-amide] | – | 5
11 | Cc1cc(I)ccc1Nc1c(C(=O)O)cc(C(=O)N(C)CCc2c[nH]c3ccccc23)c(F)c1F [Example 95, 4,5-Difluoro-N-[2-(1H-indol-3-yl)-ethyl]-6-(4-iodo-2-methyl-phenylamino)-N-methyl-isophthalamic acid] | – | 77
12 | Cc1cc(I)ccc1Nc1c(C(=O)O)cc(C(=O)NCCCN2CCOCC2)c(F)c1F [Example 91, 4,5-Difluoro-6-(4-iodo-2-methyl-phenylamino)-N-(3-morpholin4-yl-propyl)-isophthalamic acid] | – | 58
13 | Cc1cc(I)ccc1Nc1c(C(=O)O)cc(C(=O)N2CCCCC2CCO)c(F)c1F (stereo not drawn) [Example 69, 3,4-Difluoro-5-{1-[2-(2-hydroxy-ethyl)-piperidin-1-yl]-methanoyl}-2-(4-iodo-2-methyl-phenylamino)-benzoic acid] | 2.2 | 78
14 | CCc1nnc(NC(=O)c2cc3c(c(F)c2F)N(c2ccc(I)cc2C)COC3=O)s1 [Example 26, 7,8-Difluoro-1-(4-iodo-2-methyl-phenyl)-4-oxo-1,4-dihydro-2H-3,1-benzoxazine-6-carboxylic acid (5-ethyl-1,3,4-thiadiazol-2-yl)-amide] | – | 20
15 | CCCCN(CCS)C(=O)c1cc(C(=O)O)c(Nc2ccc(I)cc2C)c(F)c1F [Example 68, N-Butyl-4,5-difluoro-6-(4-iodo-2-methyl-phenylamino)-N-(2-mercapto-ethyl)-isophthalamic acid] | – | 24

More lines, now with the values ahead:

Row | IC50 [µM] | in vitro MEK assay: % inhibition @ 1 μM [%] | Compound
16 | – | 78 | Cc1cc(I)ccc1N1COC(=O)c2cc(C(=O)N3CCN(C)CC3)c(F)c(F)c21 [Example 17]
17 | – | 28 | Cc1cc(I)ccc1N1COC(=O)c2cc(C(=O)NCCC3CCCN3C)c(F)c(F)c21 (stereo not drawn) [Example 19, 7,8-Difluoro-1-(4-iodo-2-methyl-phenyl)-4-oxo-1,4-dihydro-2H-3,1-benzoxazine-6-carboxylic acid [2-(1-methyl-pyrrolidin-2-yl)ethyl]-amide]
18 | – | 34 | Cc1cc(I)ccc1N1COC(=O)c2cc(C(=O)N3CC[C@@H](O)C3)c(F)c(F)c21 [Example 8, 7,8-Difluoro-6-((R)-3-hydroxy-pyrrolidine-1-carbonyl)-1-(4-iodo-2-methyl-phenyl)-1,2-dihydro-3,1-benzoxazin-4-one]
19 | – | 23 | Cc1cc(I)ccc1N1COC(=O)c2cc(C(=O)NCC3(O)CCCCC3)c(F)c(F)c21 [Example 13, 7,8-Difluoro-1-(4-iodo-2-methyl-phenyl)-4-oxo-1,4-dihydro-2H-3,1-benzoxazine-6-carboxylic acid (1-hydroxy-cyclohexylmethyl)-amide]
20 | – | 60 | Cc1cc(I)ccc1N1COC(=O)c2cc(C(=O)Nc3cc[nH]n3)c(F)c(F)c21 [Example 36, 7,8-Difluoro-1-(4-iodo-2-methyl-phenyl)-4-oxo-1,4-dihydro-2H-3,1-benzoxazine-6-carboxylic acid (1H-pyrazol-3-yl)-amide]
21 | – | 13 | Cc1cc(I)ccc1N1COC(=O)c2cc(C(=O)N3CCN(C=O)CC3)c(F)c(F)c21 [Example 15, 4-[7,8-Difluoro-1-(4-iodo-2-methyl-phenyl)-4-oxo-1,4-dihydro-2H-3,1-benzoxazine-6-carbonyl]-piperazine-1-carbaldehyde]
22 | – | 35 | Cc1cc(I)ccc1N1COC(=O)c2cc(C(=O)NCC3CCCO3)c(F)c(F)c21 (stereo not drawn) [Example 57, 7,8-Difluoro-1-(4-iodo-2-methyl-phenyl)4-oxo-1,4-dihydro-2H-3,1-benzoxazine-6-carboxylic acid (tetrahydro-furan-2-ylmethyl)-amide]
23 | – | 79 | Cc1cc(I)ccc1N1COC(=O)c2cc(C(=O)N3CCCCC3CO)c(F)c(F)c21 (stereo not drawn) [Example 33, 7,8-Difluoro-6-(2-hydroxymethyl-piperidine-1-carbonyl)-1-(4-iodo-2-methyl-phenyl)-1,2-dihydro-3,1-benzoxazin-4-one]
24 | – | 43 | Cc1cc(I)ccc1N1COC(=O)c2cc(C(=O)NCCOCCO)c(F)c(F)c21 [Example 18, 7,8-Difluoro-1-(4-iodo-2-methyl-phenyl)-4-1,4-dihydro-2H-3,1-benzoxazine-6-carboxylic acid [2-(2-hydroxy-ethoxy)-ethyl]-amide]
